Here are results for eleven compounds from publication PMC4581252, “Permeability Study of Polyphenols Derived from a Phenolic-Enriched Hibiscus sabdariffa Extract by UHPLC-ESI-UHR-Qq-TOF-MS” (International Journal of Molecular Sciences, 2015).

Holding throughout (assay type): in vitro ADME, human
Series [1] relates to Caco-2 cell monolayer. Nature of the series: Caco-2 permeability of free PEHS extract: compounds detected in transport medium, cytoplasm and membrane. Particulars: free PEHS 2500 μg/mL; for Compound detected in transport medium, Ap-Bas / Compound detected in transport medium, Bas-Ap: receiver chamber; for Compound detected in transport medium, Bas-Ap: basolateral to apical. The source says: (§1) One of the aims of this study was to compare the intestinal absorption of HS compounds when the PEHS extract was in a free form or in an encapsulated formulation, using the Caco-2 model system. This model is a well-established in vitro model for the investigation of the intestinal permeability of different compounds or drugs. Prior to the transport studies, the Caco-2 cell monolayer was established and validated. Monolayer integrity and reliability were ensured by measuring the transepithelial electrical resistance (TEER) values, which remained stable during the assay with the experimental conditions assayed. Afterwards, samples from apical and basolateral compartments obtained at different time points and cytoplasmic and membrane fractions of the cell monolayer collected at the end of the assay (see Section 3.3 and Section 3.4) were analyzed by UHPLC-ESI-UHR-Qq-TOF-MS in order to identify which compounds crossed the Caco-2 cell monolayer.
(§2) To assess the potential intestinal absorption of PEHS and pure compounds, experiments were conducted using Caco-2 cells derived from human colorectal adenocarcinoma cells (obtained from the American Type Culture Collection). Cells were cultured in Dulbecco’s Modified Eagle Medium (DMEM) containing 10% (v/v) fetal bovine serum (FBS) and incubated at 37 °C in a humidified 5% CO2 air atmosphere. Cell monolayers were prepared by seeding 5 × 10^5 Caco-2cells/well on a six-well Transwell insert filter. Monolayers were used 19–22 days after seeding. The integrity of each cell monolayer was checked by measuring its transepithelial electrical resistance (TEER) with an epithelial voltohmmeter (EVOM, World Precision Instrument, Sarasota, FL, USA) before and after the experiments. The culture medium was replaced with fresh medium 24 h before the transport experiments. Compounds were added after washing the Caco-2 cell monolayer twice with pre-warmed HBSS medium (pH 7.4), in the apical or in the basolateral side, to evaluate the transport characteristics of the cells. Permeability studies were done by adding the PEHS solution at a concentration of 2500 μg/mL, quercetin at 18.1 μg/mL, quercetin-3-glucoside at 46.4 μg/mL, quercetin-3-glucuronide at 47.8 μg/mL, and N-feruloyltyramine at 31.3 μg/mL, while the receiving chamber contained the corresponding volume of transport medium. Samples were taken at different times (30, 60, 90, 120 min) and stored at −80 °C until their treatment.
(§3) After the permeation study, the Caco-2 cell monolayer was collected and the cells were lysed with three subsequent freezing-thawing cycles followed by bath sonication, of 10 min each step. Then, the samples were centrifuged during 15 min at 14,000 rpm and 4 °C, and the supernatants (cytoplasmic fraction) and the pellets (membranes) were stored at −80 °C.
(§4) The samples collected in the receiving chamber during the permeability assays were centrifuged for 15 min at 12,000 rpm and 4 °C. […] Finally, the samples were stored at −80 °C until the analysis, avoiding possible degradations.
(§5) The cytoplasms and cell membranes collected at the end of the permeability assays were subjected to protein precipitation using methanol, vortex-mixed, kept at −20 °C for 2 h and centrifuged at 12,000 rpm for 15 min at 4 °C. Finally, the supernatants were evaporated in a vacuum concentrator, dissolved in 100 μL of methanol, and then spiked with 10 μg/mL of apigenin, used as an internal standard for their analysis.
For the analysis of the samples, a Dionex Ultimate 3000 UHPLC (Thermo Scientific, Sunnyvale, CA, USA) was used coupled with an ultra-high resolution quadrupole time-of-flight mass spectrometer maXis (UHR-Qq-TOF-MS) from Bruker Daltonik (Bremen, Germany). The chromatographic separation was performed in a Zorbax Eclipse Plus C-18 column (4.6 × 150 mm, 1.8 μm) at a flow rate of 0.3 mL/min using an injection volume of 5 μL.
(In general: Caco-2 monolayers are a common model of the intestinal barrier.)

Series [2] deals with Caco-2 cell monolayer. Nature of the series: Caco-2 permeability of encapsulated (liposome) PEHS extract: compounds detected in transport medium, cytoplasm and membrane. As to conditions: encapsulated PEHS 2500 μg/mL; for Compound detected in transport medium, Bas-Ap / Compound detected in transport medium, Ap-Bas: receiver chamber.
Text: as §1
Primary aqueous extract was obtained from sun-dried calyces from plants harvested in Senegal, with an approximate plant-to-extract ratio of 5:1 as previously described. The purified PEHS extract was kindly provided by Monteloeder, Inc. (Elche, Alicante, Spain) and was essentially prepared as previously described. The retained phenolic fraction was finally eluted with 95% ethanol and 0.01% trifluoroacetic acid (TFA), rotatory evaporated and freeze-dried. The PEHS encapsulated formulation was performed using empty liposomes, whose final concentration was 2 mM, adding soy phosphatidylcholine to the blend. To permeabilize the liposome membrane ethanol 10% was used. The extract was dissolved in HBSS at the desired concentration (2500 μg/mL), stirred for 10 min, and finally filtered through 0.45 μm three times (PVD filter).
as §2, §3, §4

Series [3] has as its system Caco-2 cell monolayer. The experiment in a line: Caco-2 permeation of pure compounds related to PEHS (individual permeability assays). Particulars: for Concentration in the receptor chamber, Basolateral-Apical Flux: 30 min (so in the source); for Concentration in the receptor chamber, Basolateral-Apical Flux / Concentration in the receptor chamber, Apical-Basolateral Flux: donor: quercetin 18.1, quercetin-3-glucoside 46.4, quercetin-3-glucuronide 47.8, N-feruloyltyramine 31.3 μg/mL, X ± SD; for Absorption across the Caco-2 intestinal barrier model (in words): pure compounds. Here is the method:
Standard calibration curves of the compounds under study were prepared using apigenin at a concentration of 10 μg/mL as an internal standard. […] The limits of detection (LODs) and limits of quantification (LOQs) for individual compounds in standard solutions were also calculated as S/N = 3 and S/N = 10, respectively, where S/N is the signal to noise ratio (Table 3). The compound concentrations were subsequently determined using the corrected area of each individual compound (three replicates) and by interpolation in the corresponding calibration curve. Repeatability of the proposed method was measured as the relative standard deviation (RSD, %) in terms of concentration. A mixed solution containing the analytes was injected several times (n = 3) on the same day (intraday precision) and three times on three consecutive days (interday precision, n = 9). Intraday repeatability of the method developed for all the analytes was from 0.11% to 1.93%, whereas the interday repeatability ranged from 0.17% to 2.06%.
as §2, §3
The samples collected in the receiving chamber during the permeability assays were centrifuged for 15 min at 12,000 rpm and 4 °C. The supernatant was spiked with apigenin stock solution, used as an internal standard at a concentration of 10 μg/mL, in order to avoid irreproducibility of results between analyses. Finally, the samples were stored at −80 °C until the analysis, avoiding possible degradations.
as §5
For the analysis of the samples, a Dionex Ultimate 3000 UHPLC (Thermo Scientific, Sunnyvale, CA, USA) was used coupled with an ultra-high resolution quadrupole time-of-flight mass spectrometer maXis (UHR-Qq-TOF-MS) from Bruker Daltonik (Bremen, Germany). […]

The mark [4] stands for this setting: membrane fraction at end of assay, basolateral to apical.
The mark [5] stands for this setting: cytoplasmic fraction at end of assay, apical to basolateral.
The mark [6] stands for this setting: membrane fraction at end of assay, apical to basolateral.

As to `O=C(/C=C/c1ccc(O)c(O)c1)O[C@@H]1CC(C(=O)O)=C[C@@H](O)[C@H]1O` [5-O-caffeoylshikimic acid], the “Compound detected in transport medium, Ap-Bas” value in series [1] (apical to basolateral) was “+”. For the same compound, the “Compound detected in transport medium, Bas-Ap” value in series [1] and in series [2] (basolateral to apical) was “+” each time.
Consider `O=C(/C=C/c1ccc(O)cc1)O[C@@H]1C[C@](O)(C(=O)O)C[C@@H](O)[C@H]1O` [Coumaroylquinic acid], for which the “Compound detected in transport medium, Bas-Ap” value in series [1] was “+”. Further, the “Compound detected in membrane, Bas-Ap” value in series [2] (setting [4]) is recorded as “+”.
Turning to `O=C(/C=C/c1ccc(O)c(O)c1)O[C@H]1[C@H](O)C[C@](O)(C(=O)O)C[C@H]1O` [Cryptochlorogenic acid], the “Compound detected in transport medium, Ap-Bas” value in series [1] (apical to basolateral) and in series [2] (apical to basolateral) was “+” each time. For the same compound, the “Compound detected in transport medium, Bas-Ap” value in series [1] and in series [2] (basolateral to apical) was “+” in each case. The “Compound detected in cytoplasm, Ap-Bas” value in series [2] (setting [5]) is “+”. The “Compound detected in cytoplasm, Bas-Ap” value in series [2] (cytoplasmic fraction at end of assay, basolateral to apical) is recorded as “+”.
Regarding `COC(=O)C1OC(=O)CC1(O)C(=O)OC` (stereo not drawn) [Hibiscus acid dimethylesther], in series [2] (setting [5]), the “Compound detected in cytoplasm, Ap-Bas” value is “+”. In addition, the “Compound detected in membrane, Ap-Bas” value in series [2] (setting [6]) is listed as “+”. Moreover, in series [2] (setting [4]), the “Compound detected in membrane, Bas-Ap” value was “+”.
As to `O=C1C[C@](O)(C(=O)O)[C@@H](C(=O)O)O1` [Hibiscus acid], the “Compound detected in cytoplasm, Ap-Bas” value in series [2] (setting [5]) is on record as “+”.
For the compound `COC(=O)c1cc(O)c(O)c(OC(=O)c2cc(O)c(O)c(O)c2)c1` [Methyldigallate, Methyl digallate], the “Compound detected in transport medium, Bas-Ap” value in series [1] and in series [2] (basolateral to apical) was “+” each time. In addition, the “Compound detected in cytoplasm, Ap-Bas” value in series [2] (setting [5]) is “+”.
`COc1cc(/C=C/C(=O)NCCc2ccc(O)cc2)ccc1O` [N-feruloyltyramine]: the “Compound detected in transport medium, Ap-Bas” value in series [1] (apical to basolateral) and in series [2] (apical to basolateral) was “+” in each case. The “Compound detected in transport medium, Bas-Ap” value in series [1] and in series [2] (basolateral to apical) was “+” each time. The “Concentration in the receptor chamber, Basolateral-Apical Flux” value in series [3] came out at 1350 ± 40 ng/mL. Also, the “Concentration in the receptor chamber, Apical-Basolateral Flux” value (from here on “Concentration … Apical-Basolateral Flux”) worked out at 690 ± 20 ng/mL in series [3] (30 min), 2300 ± 200 ng/mL in series [3] (60 min), 4200 ± 500 ng/mL in series [3] (90 min) and 6600 ± 800 ng/mL in series [3] (120 min). Also, the “Absorption across the Caco-2 intestinal barrier model (in words)” value in series [3] was “significant absorption”.
Take `O=c1c(O[C@@H]2O[C@H](CO)[C@@H](O)[C@H](O)[C@H]2O)c(-c2ccc(O)c(O)c2)oc2cc(O)cc(O)c12` [Quercetin-3-glucoside]: in series [3], the “Concentration in the receptor chamber, Basolateral-Apical Flux” value is listed as “<LOQ”. Also, the “Concentration … Apical-Basolateral Flux” value was “<LOQ” in series [3] (30 min), “<LOQ” in series [3] (60 min), “<LOQ” in series [3] (90 min) and 470 ± 30 ng/mL in series [3] (120 min). The “Absorption across the Caco-2 intestinal barrier model (in words)” value in series [3] is reported as “lesser extent”.
For `O=C(O)[C@H]1O[C@@H](Oc2c(-c3ccc(O)c(O)c3)oc3cc(O)cc(O)c3c2=O)[C@H](O)[C@@H](O)[C@@H]1O` [Quercetin-3-glucuronide], the “Concentration in the receptor chamber, Basolateral-Apical Flux” value in series [3] is given as “<LOQ”. Further, the “Concentration … Apical-Basolateral Flux” value is “not detected” in series [3] (30 min), “not detected” in series [3] (60 min), “not detected” in series [3] (90 min) and “<LOQ” in series [3] (120 min). Further, the “Absorption across the Caco-2 intestinal barrier model (in words)” value in series [3] is given as “lesser extent”.
As for `O=c1c(O)c(-c2ccc(O)c(O)c2)oc2cc(O)cc(O)c12` [Quercetin], the “Compound detected in cytoplasm, Ap-Bas” value in series [1] (setting [5]) and in series [2] (setting [5]) was “+” in each case. Besides, the “Compound detected in membrane, Ap-Bas” value in series [1] (setting [6]) is “+”. Also, the “Compound detected in transport medium, Ap-Bas” value in series [1] (apical to basolateral) is “+”. In addition, the “Compound detected in transport medium, Bas-Ap” value in series [1] is recorded as “+”. The “Concentration in the receptor chamber, Basolateral-Apical Flux” value in series [3] stood at 1100 ± 400 ng/mL. The “Concentration … Apical-Basolateral Flux” value in series [3] (30 min) came out at 280 ± 20 ng/mL; in series [3] (60 min), 490 ± 30 ng/mL; in series [3] (90 min), 1330 ± 20 ng/mL; in series [3] (120 min) it was 1320 ± 10 ng/mL. Further, in series [3] (both flux directions, sampling at 30, 60, 90, 120 min), the “Time at which maximum permeation / maximum concentration was reached” value turned out to be 90 min. Besides, in series [3] (end of assay), the “Final concentration in the basolateral-apical flux relative to the opposite flux” value is reported as “around five-fold”. Also, in series [3], the “Absorption across the Caco-2 intestinal barrier model (in words)” value is “significant absorption”.
For the compound Methylepigallocatechin, the “Compound detected in transport medium, Bas-Ap” value in series [1] is reported as “+”.
